# Measured values reported in the supplement of paper PMC11061612.
# What was measured:
# Experiment in all cases: Bliss excess, mean over the matrix (fraction); higher = more synergy
# [1] = test system: COLO-824 (Breast Carcinoma)
# Procedure, shortened: (§1)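 Bliss excess equals the observed combination effect minus the expected value EA + EB − EA·EB, where EA and EB are the effects of each agent alone. Combination Emax is the second-highest inhibition within the matrix. Inhibition was scaled from CellTiter-Glo 2.0 luminescence, with 0 set by vehicle wells and 1 by blank wells, after 72 hours of two-drug dosing of cells plated in 1536-well plates.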
# [2] = test system: IGR-37 (Melanoma)
# Procedure, shortened: as §1
# [3] = test system: NCI-H64 (Small Cell Lung Carcinoma)
# Procedure, shortened: as §1
# [4] = test system: CAPAN-2 (Pancreatic Carcinoma)
# Procedure, shortened: as §1
# [5] = test system: NCI-H1581 (Non-Small Cell Lung Carcinoma)
# Procedure, shortened: as §1
# [6] = test system: ARH-77 (Non-Cancerous)
# Procedure, shortened: as §1
# [7] = test system: VCaP (Prostate Carcinoma)
# Procedure, shortened: as §1
# [8] = test system: NY (Osteosarcoma)
# Procedure, shortened: as §1
# [9] = test system: LN-405 (Glioblastoma)
# Procedure, shortened: as §1
# [10] = test system: NCI-H1666 (Lung Adenocarcinoma)
# Procedure, shortened: as §1
# [11] = test system: TT (Thyroid Gland Carcinoma)
# Procedure, shortened: as §1
# [12] = test system: COR-L311 (Small Cell Lung Carcinoma)
# Procedure, shortened: as §1
# [13] = test system: GI-ME-N (Neuroblastoma)
# Procedure, shortened: as §1
# [14] = test system: HCC1954 (Breast Carcinoma)
# Procedure, shortened: as §1
# [15] = test system: PANC-10-05 (Pancreatic Carcinoma)
# Procedure, shortened: as §1
# [16] = test system: A3-KAW (B-Cell Non-Hodgkin's Lymphoma)
# Procedure, shortened: as §1
# [17] = test system: SK-MES-1 (Squamous Cell Lung Carcinoma)
# Procedure, shortened: as §1
# [18] = test system: NCI-H1650 (Lung Adenocarcinoma)
# Procedure, shortened: as §1
# [19] = test system: JSC-1 (B-Cell Non-Hodgkin's Lymphoma)
# Procedure, shortened: as §1
# [20] = test system: A498 (Kidney Carcinoma)
# Procedure, shortened: as §1
Structure (SMILES),Bliss excess [1],Bliss excess [2],Bliss excess [3],Bliss excess [4],Bliss excess [5],Bliss excess [6],Bliss excess [7],Bliss excess [8],Bliss excess [9],Bliss excess [10],Bliss excess [11],Bliss excess [12],Bliss excess [13],Bliss excess [14],Bliss excess [15],Bliss excess [16],Bliss excess [17],Bliss excess [18],Bliss excess [19],Bliss excess [20]
"Cc1cc2ncnn2cc1Nc1ncc2c(n1)n(C1CCOCC1)c(=O)n2C [AZD7648] + O=C(c1cc(Cc2n[nH]c(=O)c3ccccc23)ccc1F)N1CCN(C(=O)C2CC2)CC1 [Olaparib] (first compound max 10 µM, 7x7, partner max 10 µM)",-0.0115,-0.057,-0.0384,-0.0757,-0.0319,0.0393,-0.0336,-0.0311,-0.0421,-0.0471,-0.0702,-0.126,-0.0382,-0.045,-0.0426,-0.0107,-0.0323,-0.0494,-0.0148,-0.0268
"Cc1c2c(nn1C)CSCc1cc(n(C)n1)CSc1cc(c3ccccc3c1)OCCCc1c(C(=O)O)n(C)c3c-2c(Cl)ccc13 [AZD5991] + CN(C)CCCOc1ccc(-c2ccc3ncc4c(c3c2)n(C2CCOCC2)c(=O)n4C)cn1 [AZD0156] (first compound max 1 µM, 7x7, partner max 1 µM)",-0.004,0.0148,-0.0708,0.0062,0.0383,-0.0423,0.0034,0.0299,-0.0026,0.0068,-0.071,-0.0088,-0.04,0.0247,-0.0048,-0.0252,-0.0029,-0.0398,-0.0081,-0.0274
"CN(CCO)CC[C@H](CSc1ccccc1)Nc1ccc(S(=O)(=O)NC(=O)c2ccc(N3CCC([C@@H](O)c4ccccc4-c4ccc(Cl)cc4)CC3)cc2)cc1S(=O)(=O)C(F)(F)F [AZD4320] + Cc1cc2ncnn2cc1Nc1ncc2c(n1)n(C1CCOCC1)c(=O)n2C [AZD7648] (first compound max 1 µM, 7x7, partner max 10 µM)",0.006,-0.0132,-0.0449,-0.0217,-0.0158,0.0238,-0.0185,-0.018,0.0012,-0.0352,-0.0694,0.0219,-0.0775,0.028,-0.0652,0.0296,-0.0632,-0.0227,-0.0113,-0.0393
"NC1(C(=O)N[C@@H](CCO)c2ccc(Cl)cc2)CCN(c2ncnc3[nH]ccc23)CC1 [Capivasertib] + Cn1cnc2c(F)c(Nc3ccc(Br)cc3Cl)c(C(=O)NOCCO)cc21 [Selumetinib] (first compound max 10 µM, 7x7, partner max 10 µM)",0.0166,-0.0258,-0.0027,0.0332,0.0371,0.0614,-0.0249,-0.0161,-0.0051,-0.0165,-0.0098,-0.0422,-0.0544,0.0405,0.0147,0.0622,0.0571,-0.0203,0.0954,-0.0108
"CCc1c2c(nc3ccc(O)cc13)-c1cc3c(c(=O)n1C2)COC(=O)[C@]3(O)CC [SN-38] + O=C(c1cc(Cc2n[nH]c(=O)c3ccccc23)ccc1F)N1CCN(C(=O)C2CC2)CC1 [Olaparib] (first compound max 0.3 µM, 7x7, partner max 10 µM)",–,0.0226,0.101,-0.0382,0.0009,0.0446,0.104,0.071,-0.0524,0.0889,0.0545,–,0.0672,–,0.0059,–,–,0.0138,-0.0044,0.036
"CN(CCO)CC[C@H](CSc1ccccc1)Nc1ccc(S(=O)(=O)NC(=O)c2ccc(N3CCC([C@@H](O)c4ccccc4-c4ccc(Cl)cc4)CC3)cc2)cc1S(=O)(=O)C(F)(F)F [AZD4320] + CN(C)CCCOc1ccc(-c2ccc3ncc4c(c3c2)n(C2CCOCC2)c(=O)n4C)cn1 [AZD0156] (first compound max 1 µM, 7x7, partner max 1 µM)",0.0031,-0.0148,0.0003,-0.033,0.0018,-0.0283,-0.0185,-0.0432,0.0093,-0.0508,-0.0778,0.0177,-0.0454,0.0526,-0.0489,-0.0197,-0.005,-0.0443,-0.0076,-0.0358
"Cc1nc(Nc2ncc(C(=O)Nc3c(C)cccc3Cl)s2)cc(N2CCN(CCO)CC2)n1 [Dasatinib] + CC(=O)Nc1cccc(-n2c(=O)n(C3CC3)c(=O)c3c(Nc4ccc(I)cc4F)n(C)c(=O)c(C)c32)c1 [Trametinib] (first compound max 2 µM, 7x7, partner max 1 µM)",-0.0774,-0.121,-0.0498,0.0749,-0.0416,-0.0311,-0.0396,0.034,-0.0347,-0.0644,-0.0272,-0.0295,-0.0849,0.0318,0.0735,0.0863,0.0198,-0.0167,-0.117,-0.143
"COc1nnc2ccc(N3CCC(c4ccc(OCCN5CCN(C)C(=O)[C@H]5C)cc4)CC3)nn12 [AZD5153] + C=CCn1c(=O)c2cnc(Nc3ccc(N4CCN(C)CC4)cc3)nc2n1-c1cccc(C(C)(C)O)n1 [AZD1775] (first compound max 1 µM, partner max 1 µM)",-0.0551,-0.0569,-0.0114,-0.0202,-0.0029,-0.066,-0.0756,0.0119,-0.042,-0.0944,-0.0629,-0.06,-0.0231,-0.0383,-0.132,-0.0093,0.0183,-0.015,-0.123,0.0142
"CC1(C)CCC(CN2CCN(c3ccc(C(=O)NS(=O)(=O)c4ccc(NCC5CCOCC5)c([N+](=O)[O-])c4)c(Oc4cnc5[nH]ccc5c4)c3)CC2)=C(c2ccc(Cl)cc2)C1 [Venetoclax] + C1CN(CCC1(C(=O)N[C@@H](CCO)C2=CC=C(C=C2)Cl)N)C3=NC=NC4=C3C=CN4 [Capivasertib] (first compound max 1 µM, 7x7, partner max 3 µM)",0.0048,-0.0448,0.0083,-0.0658,-0.041,0.054,-0.026,0.0029,-0.0712,-0.0541,-0.103,-0.0022,-0.0685,0.0021,-0.0656,-0.0468,-0.044,-0.0329,-0.0613,-0.121
"CC(=O)c1c(C)c2cnc(Nc3ccc(N4CCNCC4)cn3)nc2n(C2CCCC2)c1=O [Palbociclib] + CN(CC[C@H](CSC1=CC=CC=C1)NC2=C(C=C(C=C2)S(=O)(=O)NC(=O)C3=CC=C(C=C3)N4CCC(CC4)[C@H](C5=CC=CC=C5C6=CC=C(C=C6)Cl)O)S(=O)(=O)C(F)(F)F)CCO [AZD4320] (first compound max 10 µM, 7x7, partner max 1 µM)",0.0326,–,–,–,–,-0.0498,–,–,-0.0276,–,–,0.0047,-0.0771,-0.0722,–,0.0082,-0.0549,-0.0805,-0.0418,-0.134
"COc1nnc2ccc(N3CCC(c4ccc(OCCN5CCN(C)C(=O)[C@H]5C)cc4)CC3)nn12 [AZD5153] + CN(CC[C@H](CSC1=CC=CC=C1)NC2=C(C=C(C=C2)S(=O)(=O)NC(=O)C3=CC=C(C=C3)N4CCC(CC4)[C@H](C5=CC=CC=C5C6=CC=C(C=C6)Cl)O)S(=O)(=O)C(F)(F)F)CCO [AZD4320] (first compound max 1 µM, 7x7, partner max 1 µM)",0.057,–,–,–,–,-0.019,–,–,0.0448,–,–,0.0506,0.0077,-0.0119,–,-0.0232,0.0704,-0.0124,-0.0243,0.0103
"C[C@@H](c1ccc2nccn2c1)n1nnc2ncc(-c3cnn(C)c3)nc21 [Savolitinib] + CN(CC[C@H](CSC1=CC=CC=C1)NC2=C(C=C(C=C2)S(=O)(=O)NC(=O)C3=CC=C(C=C3)N4CCC(CC4)[C@H](C5=CC=CC=C5C6=CC=C(C=C6)Cl)O)S(=O)(=O)C(F)(F)F)CCO [AZD4320] (first compound max 1 µM, 7x7, partner max 1 µM)",-0.0101,–,–,–,–,-0.0322,–,–,-0.0518,–,–,0.0158,-0.0699,-0.0198,–,-0.0158,-0.0188,-0.0646,-0.0221,-0.0589
"Cc1c2c(nn1C)CSCc1cc(n(C)n1)CSc1cc(c3ccccc3c1)OCCCc1c(C(=O)O)n(C)c3c-2c(Cl)ccc13 [AZD5991] + C1CN(CCC1(C(=O)N[C@@H](CCO)C2=CC=C(C=C2)Cl)N)C3=NC=NC4=C3C=CN4 [Capivasertib] (first compound max 1 µM, 7x7, partner max 3 µM)",0.01,–,-0.0261,0.0085,-0.0048,-0.037,0.0545,0.0079,0.0158,0.0151,-0.0499,0.0059,-0.0245,0.0559,0.0422,0.0236,0.0568,0.012,-0.0085,-0.0091
